From ChEMBL document CHEMBL3217572, “Preparation and evaluation of BBB-permeable trehalose derivatives as potential therapeutic agents for Huntington's disease” (Medchemcomm, 2013)
pIC50: −log10 of the molar value. The source made the active and inactive calls. No cut-off for these calls is given here.

Experiments:
[1] = target: Huntingtin (Homo sapiens) (UniProt P42858); experiment: Inhibition of N-terminal GFP-tagged Htt-exon1-Q103 (unknown origin) transfected in Neuro2a cells assessed as reduction of Htt-Q103 aggregate formation at 100 uM by fluorescence microscopic analysis; type: cell-based
[2] = target: Huntingtin (Homo sapiens) (UniProt P42858); experiment: Inhibition of N-terminal GFP-tagged Htt-exon1-Q103 (unknown origin) transfected in HEK293A cells assessed as reduction of Htt-Q103 aggregate formation at 200 uM by filter trap assay; type: cell-based; details: HEK293-A
[3] = target: Huntingtin (Homo sapiens) (UniProt P42858); experiment: Inhibition of N-terminal GFP-tagged Htt-exon1-Q103 (unknown origin) transfected in HEK293A cells assessed as reduction of Htt-Q103 aggregate formation at 50 uM after 3 days by fluorescence microscopic analysis; type: cell-based; details: HEK293-A
Mus musculus [4] = experiment: Inhibition of mutated huntingtin aggregate formation in liver homogenate of R6/2 transgenic mouse at 1%, po after 4 to 8 weeks by Western blotting analysis; type: functional, organism-based
Mus musculus [5] = experiment: Inhibition of mutated aggregate formation in brain homogenate of R6/2 transgenic mouse at 1%, po by Hoechst staining-based by immunohistochemistry; type: functional, organism-based
Mus musculus [6] = experiment: Toxicity in R6/2 transgenic mouse assessed as body weight loss at 1%, po measured on week 12; type: organism-based; details: in vivo
Mus musculus [7] = experiment: Neuroprotective activity in R6/2 transgenic mouse assessed as increased mean survival time at 1%, po (reference value: 93 days); type: functional
Mus musculus [8] = experiment: Neuroprotective activity in R6/2 transgenic mouse assessed as increased locomotory activity at 0.4%, po measured for 20 mins; type: functional, organism-based
Mus musculus [9] = experiment: Neuroprotective activity in R6/2 transgenic mouse assessed as reduction of foot-clasping posture at 0.4%, po measured on week 8; type: functional, organism-based
[10] = target: Huntingtin (Homo sapiens) (UniProt P42858); experiment: Inhibition of N-terminal Htt-exon1-Q103 (unknown origin) transfected in mouse Neuro2a cells assessed as decrease in soluble and insoluble aggregate formation by Western blotting analysis; type: cell-based
[11] = target: Huntingtin (Homo sapiens) (UniProt P42858); experiment: Inhibition of N-terminal GFP-tagged Htt-exon1-Q103 (unknown origin) transfected in HEK293A cells assessed as reduction of Htt-Q103 aggregate formation by filter trap assay; type: cell-based; details: HEK293-A
[12] = target: Huntingtin (Homo sapiens) (UniProt P42858); experiment: Inhibition of N-terminal Htt-exon1-Q103 (unknown origin) transfected in HEK293A cells at 50 uM by Western blotting analysis; type: cell-based; details: HEK293-A
RAW264.7 = experiment: Cytotoxicity against mouse RAW264.7 cells by MTT assay; type: cell-based
HeLa [13] = experiment: Cytotoxicity against human HeLa cells by MTT assay; type: cell-based
[14] = Cytotoxicity against african green monkey COS7 cells by MTT assay; type: cell-based; details: Chlorocebus aethiops, COS-7
Mus musculus [15] = experiment: Neuroprotective activity in wild type mouse assessed as behavioral pattern at 0.4%, po; type: ADME, organism-based; details: in vivo
[16] = target: Huntingtin (Homo sapiens) (UniProt P42858); experiment: Inhibition of N-terminal GFP-tagged Htt-exon1-Q25 (unknown origin) transfected in HEK293A cells assessed as reduction of Htt-Q103 aggregate formation at 50 uM after 3 days by fluorescence microscopic analysis; type: cell-based; details: HEK293-A
[17] = Solubility in water; type: physicochemical; details: buffer
Mus musculus [18] = experiment: Inhibition of mutated aggregate formation in brain homogenate of R6/2 transgenic mouse at 0.4%, po by Hoechst staining-based by immunohistochemistry; type: functional, organism-based
Mus musculus [19] = experiment: Inhibition of mutated huntingtin aggregate formation in liver homogenate of R6/2 transgenic mouse at 0.4%, po after 4 to 8 weeks by Western blotting analysis; type: functional, organism-based
Mus musculus [20] = experiment: Inhibition of mutated huntingtin aggregate formation in brain homogenate of R6/2 transgenic mouse at 0.4%, po by Western blotting analysis; type: functional, organism-based
Mus musculus [21] = experiment: Toxicity in R6/2 transgenic mouse assessed as body weight loss at 0.4%, po measured on week 12; type: organism-based; details: in vivo
Mus musculus [22] = experiment: Toxicity in R6/2 transgenic mouse assessed as increase in body weight at 0.4%, po measured up to 9 weeks; type: organism-based; details: in vivo, 1512 h
Mus musculus [23] = experiment: Neuroprotective activity in R6/2 transgenic mouse assessed as increase in mean survival time at 0.4%, po (reference value: 93 days); type: functional
Mus musculus [24] = experiment: Neuroprotective activity in R6/2 transgenic mouse assessed as improved motor coordination and balance at 0.4%, po measured up to 8 weeks by rotarod test; type: functional, organism-based
Brain [25] = experiment: Biodistribution in C57BL/6 mouse brain at 454 mg/kg, po after 24 hrs by fluorescence microscopic analysis; type: ADME, organism-based; parameters: dose 454 mg/kg, route oral; details: in vivo
Spleen = experiment: Biodistribution in C57BL/6 mouse spleen at 454 mg/kg, po after 24 hrs by fluorescence microscopic analysis; type: ADME, organism-based; parameters: dose 454 mg/kg, route oral; details: in vivo
Kidney = experiment: Biodistribution in C57BL/6 mouse kidney at 90.9 mg/kg, ip after 60 mins by fluorescence microscopic analysis; type: ADME, organism-based; parameters: dose 90.9 mg/kg, route intraperitoneal; details: in vivo, 1 h
Brain [26] = experiment: Biodistribution in C57BL/6 mouse brain at 90.9 mg/kg, ip after 60 mins by fluorescence microscopic analysis; type: ADME, organism-based; parameters: dose 90.9 mg/kg, route intraperitoneal; details: in vivo, 1 h
Mus musculus [27] = experiment: Toxicity in C57BL/6 mouse at 454 mg/kg, po; type: organism-based; parameters: dose 454 mg/kg, route oral; details: in vivo
Mus musculus [28] = experiment: Toxicity in C57BL/6 mouse at 90.9 mg/kg, ip; type: organism-based; parameters: dose 90.9 mg/kg, route intraperitoneal; details: in vivo
HeLa [29] = experiment: Cellular uptake in human HeLa cells at 5 to 10 uM after 10 mins by FACS analysis; type: ADME, cell-based
[30] = Cellular uptake in cytoplasm of human HeLa cells at 10 uM after 10 mins by confocal microscopic analysis in presence mitotracker; type: ADME, cell-based
[31] = Cellular uptake in cytoplasm of human HeLa cells at 1 uM up to 1 hr by confocal microscopic analysis; type: ADME, cell-based
[32] = Cellular uptake in nucleus of human HeLa cells at 1 uM up to 1 hr by confocal microscopic analysis; type: ADME, cell-based

Sequence of Huntingtin (Homo sapiens) (P42858 whole entry): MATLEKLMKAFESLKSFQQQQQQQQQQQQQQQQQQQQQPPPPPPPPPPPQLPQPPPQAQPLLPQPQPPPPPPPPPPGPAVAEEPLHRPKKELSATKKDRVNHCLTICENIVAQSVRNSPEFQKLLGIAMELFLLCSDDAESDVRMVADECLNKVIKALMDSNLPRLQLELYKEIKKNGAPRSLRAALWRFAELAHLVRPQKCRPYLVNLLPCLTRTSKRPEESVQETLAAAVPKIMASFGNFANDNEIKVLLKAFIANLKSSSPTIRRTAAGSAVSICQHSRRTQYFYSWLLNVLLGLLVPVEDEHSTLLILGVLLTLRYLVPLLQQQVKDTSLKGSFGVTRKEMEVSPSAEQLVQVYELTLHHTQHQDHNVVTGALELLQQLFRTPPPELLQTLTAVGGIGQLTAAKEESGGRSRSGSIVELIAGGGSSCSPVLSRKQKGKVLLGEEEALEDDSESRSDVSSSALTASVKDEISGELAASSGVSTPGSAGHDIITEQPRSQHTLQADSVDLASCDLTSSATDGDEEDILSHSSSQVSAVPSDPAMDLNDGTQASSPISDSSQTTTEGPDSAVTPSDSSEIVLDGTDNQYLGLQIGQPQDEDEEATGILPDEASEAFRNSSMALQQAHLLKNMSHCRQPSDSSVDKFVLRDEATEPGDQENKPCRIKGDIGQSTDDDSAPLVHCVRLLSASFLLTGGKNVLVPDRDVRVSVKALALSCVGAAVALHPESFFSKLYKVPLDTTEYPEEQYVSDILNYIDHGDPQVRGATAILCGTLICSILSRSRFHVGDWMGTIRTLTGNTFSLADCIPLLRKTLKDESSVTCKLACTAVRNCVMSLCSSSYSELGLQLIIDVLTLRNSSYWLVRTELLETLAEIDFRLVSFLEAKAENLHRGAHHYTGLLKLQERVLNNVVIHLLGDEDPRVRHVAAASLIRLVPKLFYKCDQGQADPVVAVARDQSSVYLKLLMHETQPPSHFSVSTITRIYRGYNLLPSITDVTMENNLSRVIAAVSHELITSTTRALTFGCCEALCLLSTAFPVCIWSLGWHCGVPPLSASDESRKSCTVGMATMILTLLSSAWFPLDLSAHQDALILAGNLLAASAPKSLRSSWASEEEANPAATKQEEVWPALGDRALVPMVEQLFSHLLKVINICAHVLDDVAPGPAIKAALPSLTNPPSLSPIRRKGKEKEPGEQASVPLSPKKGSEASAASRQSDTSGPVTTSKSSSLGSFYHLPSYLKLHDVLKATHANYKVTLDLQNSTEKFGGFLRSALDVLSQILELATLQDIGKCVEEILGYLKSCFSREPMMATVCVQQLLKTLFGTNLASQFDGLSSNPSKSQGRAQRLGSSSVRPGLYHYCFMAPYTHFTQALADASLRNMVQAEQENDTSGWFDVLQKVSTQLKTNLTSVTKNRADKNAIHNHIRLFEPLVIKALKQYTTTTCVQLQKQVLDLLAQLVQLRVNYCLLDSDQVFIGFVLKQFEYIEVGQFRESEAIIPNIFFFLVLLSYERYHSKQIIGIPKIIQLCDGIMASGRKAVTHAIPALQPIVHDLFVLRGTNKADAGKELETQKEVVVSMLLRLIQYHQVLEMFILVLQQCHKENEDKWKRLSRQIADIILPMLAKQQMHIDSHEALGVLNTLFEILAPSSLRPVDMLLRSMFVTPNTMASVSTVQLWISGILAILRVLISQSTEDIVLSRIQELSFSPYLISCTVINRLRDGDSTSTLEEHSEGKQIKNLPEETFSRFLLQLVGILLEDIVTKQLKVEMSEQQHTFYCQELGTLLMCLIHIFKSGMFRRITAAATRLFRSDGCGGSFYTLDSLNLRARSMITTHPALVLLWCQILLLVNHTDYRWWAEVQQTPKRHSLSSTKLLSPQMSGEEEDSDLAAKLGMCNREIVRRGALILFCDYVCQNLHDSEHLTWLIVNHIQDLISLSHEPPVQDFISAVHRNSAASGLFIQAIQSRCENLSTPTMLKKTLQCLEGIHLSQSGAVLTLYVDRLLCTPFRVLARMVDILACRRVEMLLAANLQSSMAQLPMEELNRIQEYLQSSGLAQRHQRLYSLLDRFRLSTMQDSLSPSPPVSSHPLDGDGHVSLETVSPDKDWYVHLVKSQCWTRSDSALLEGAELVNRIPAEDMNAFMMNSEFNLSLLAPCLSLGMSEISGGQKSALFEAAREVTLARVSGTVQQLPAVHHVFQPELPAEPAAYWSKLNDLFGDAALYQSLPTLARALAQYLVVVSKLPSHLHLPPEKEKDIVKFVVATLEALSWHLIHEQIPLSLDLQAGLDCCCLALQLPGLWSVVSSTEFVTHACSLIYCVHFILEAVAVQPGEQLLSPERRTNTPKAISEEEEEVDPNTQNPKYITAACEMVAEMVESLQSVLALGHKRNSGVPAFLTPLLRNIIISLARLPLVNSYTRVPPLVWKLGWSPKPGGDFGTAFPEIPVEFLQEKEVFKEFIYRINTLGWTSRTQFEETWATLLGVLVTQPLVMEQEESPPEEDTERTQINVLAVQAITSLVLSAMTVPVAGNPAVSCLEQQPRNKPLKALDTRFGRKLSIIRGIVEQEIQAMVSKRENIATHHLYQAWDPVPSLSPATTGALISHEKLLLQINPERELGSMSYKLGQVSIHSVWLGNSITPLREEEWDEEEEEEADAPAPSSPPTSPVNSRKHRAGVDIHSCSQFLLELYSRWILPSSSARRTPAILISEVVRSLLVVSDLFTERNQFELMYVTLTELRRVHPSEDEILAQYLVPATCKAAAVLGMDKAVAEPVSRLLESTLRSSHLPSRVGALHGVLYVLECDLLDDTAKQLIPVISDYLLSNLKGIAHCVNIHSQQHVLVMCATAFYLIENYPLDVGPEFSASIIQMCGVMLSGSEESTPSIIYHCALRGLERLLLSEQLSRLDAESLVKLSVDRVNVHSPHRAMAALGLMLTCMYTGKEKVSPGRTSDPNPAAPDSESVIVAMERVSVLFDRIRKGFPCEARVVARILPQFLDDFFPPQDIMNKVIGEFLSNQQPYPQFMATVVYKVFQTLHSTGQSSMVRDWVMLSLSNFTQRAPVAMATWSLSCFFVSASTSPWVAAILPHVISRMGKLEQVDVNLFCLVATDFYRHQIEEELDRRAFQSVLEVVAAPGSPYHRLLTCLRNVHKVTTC

In the case of `OC[C@H]1O[C@H](O[C@H]2O[C@H](CO)[C@@H](O)[C@H](O)[C@H]2O)[C@H](O)[C@@H](O)[C@@H]1O` [TREHALOSE], the inhibition [1] was “inactive”, the inhibition [2] was “inactive” and the inhibition [3] was “inactive”. For the same compound, the inhibition (Mus musculus [4]) was “Active”, the inhibition (Mus musculus [5]) was “Active” and the Activity (Mus musculus [6]) was 25%. For the same compound, the MSD (Mus musculus [7]) was 94.5 days.

In the case of `Cl.N=C(N)NCCCCCC(=O)O[C@@H]1[C@@H](OC(=O)CCCCCNC(=N)N)[C@@H](O[C@H]2O[C@H](CO)[C@@H](OC(=O)CCCCCNC(=N)N)[C@H](OC(=O)CCCCCNC(=N)N)[C@H]2OC(=O)CCCCCNC(=N)N)O[C@H](CO)[C@H]1OC(=O)CCCCCNC(=N)N`, the Activity (Mus musculus [8]) was “Active”, the Activity (Mus musculus [9]) was “Active” and the inhibition [10] was “Dose-dependent effect”. For the same compound, the inhibition ([1]; TDE = time-dependent effect) was “tde”, the inhibition [11] was “Dose-dependent effect” and the inhibition [12] was “Active”. For the same compound, the inhibition [3] was “Active”, the pIC50 (RAW264.7) was under 4.00 and the pIC50 (HeLa [13]) was under 4.00. For the same compound, the pIC50 [14] was under 4.00, the Activity (Mus musculus [15]) was “Non-toxic” and the inhibition [16] was “inactive”. The solubility [17] was “soluble”, the inhibition (Mus musculus [18]) was “Active” and the inhibition (Mus musculus [19]) was “Active”. For the same compound, the inhibition (Mus musculus [20]) was “Active”, the Activity (Mus musculus [21]) was 14% and the Activity (Mus musculus [22]) was “Non-toxic”. The MSD (Mus musculus [23]) was 98.5 days and the Activity (Mus musculus [24]) was “Active”.

For `Cl.N=C(N)NCCCCCC(=O)OC[C@H]1O[C@H](O[C@H]2O[C@H](COC(=O)CCCCCNC(=N)N)[C@@H](OC(=O)CCCCCNC(=N)N)[C@H](OC(=O)CCCCCNC(=N)N)[C@H]2OC(=O)CCCCCNC(=N)N)[C@H](OC(=O)CCCCCNC(=N)N)[C@@H](OC(=O)CCCCCNC(=N)N)[C@@H]1OC(=O)CCCCCNC(=N)N`, the inhibition [3] was “inactive”, the pIC50 (RAW264.7) was over 4.00 and the pIC50 (HeLa [13]) was over 4.00. The pIC50 [14] was over 4.00, the inhibition [16] was “inactive” and the solubility [17] was “soluble”.

With `Cl.N=C(N)NCCCCCC(=O)O[C@@H]1[C@@H](OC(=O)CCCCCNC(=N)N)[C@@H](O[C@H]2O[C@H](COC(=O)CCCCCNC(=S)Nc3ccc(-c4c5ccc(=O)cc-5oc5cc(O)ccc45)c(C(=O)O)c3)[C@@H](OC(=O)CCCCCNC(=N)N)[C@H](OC(=O)CCCCCNC(=N)N)[C@H]2OC(=O)CCCCCNC(=N)N)O[C@H](COC(=O)CCCCCNC(=S)Nc2ccc(-c3c4ccc(=O)cc-4oc4cc(O)ccc34)c(C(=O)O)c2)[C@H]1OC(=O)CCCCCNC(=N)N` the Drug uptake (Brain [25]) was “Active”, the Drug uptake (Spleen) was “Active” and the Drug uptake (Kidney) was “Active”. The Drug uptake (Brain [26]) was “Active”, the Activity (Mus musculus [27]) was “Non-toxic” and the Activity (Mus musculus [28]) was “Non-toxic”. For the same compound, the Drug uptake (HeLa [29]) was “Active”, the Drug uptake [30] was “Active” and the Drug uptake [31] was “Active”. For the same compound, the Drug uptake [32] was “Active” and the solubility [17] was “soluble”.
